Two compounds from US9750817B2, “Amphotericin B derivatives” (priority 2015, dated 2017) can be followed below.

Molecules are shown by their SMILES. Where “and” joins values, the source holds several entries; their conditions need not be identical. Equal entries are not always repeated.

One series deals with ICR mice. Nature of the series: In vivo toxicity, intravenous injection. As to conditions: for LD50 / Maximum Dose: tail vein. As for the experimental part: In-vivo toxicity was determined in mice using 6 week old female ICR mice (n=6). Different concentrations of each formulation were injected intravenously through the tail vein, 0.2 ml per mouse, until death was observed. PAD-AMB conjugates were prepared in sterile saline solution and were filtered through 0.45-micrometer pore-size cellulose acetate sterile filters prior to injection.

Series [1] has as its system C. albicans CBS 562. Nature of the series: Experimental systemic murine candidiasis, survival. The class given is in vivo, mice. Conditions: four daily injections, 24 days. As for the experimental part: Reference is Made to FIG. 5. Efficacy of PAD-AMB was Tested on Naïve 6 Week Old female ICR mice (n=20). Experimental systemic murine candidiasis was induced by intravenous inoculation of C. albicans CBS 562 into the tail vein using an inoculum of 5×10^4 cells in 0.2 ml per mouse. Fungal count was determined by microscopic counts on a haemocytometer. Treatment began 24 h after inoculation of C. albicans and consisted of four consecutive daily injections of Compound 6 at a range of 1.75-8.75 mg/kg/day relative to mouse body weight. Control groups included infected untreated mice and mice treated with AMB (1 mg/kg/day body weight). Survival and mouse body weight were monitored for 24 days. Survival for the various mouse groups is shown graphically in FIG. 5.

Series [2] in a line: Pharmacokinetics upon single intravenous administration. It is filed as in vivo, mice. Set-up: ke: unit not given here. Conditions: mouse serum, IV bolus; AMB 1 mg/kg, Compound 6 5 mg/kg. As for the experimental part: AMB and Compound 6 solution in saline were administrated intravenously (IV) to groups of mice at a dose of 1 and 5 mg/kg body weight, respectively. The mice received an IV bolus via the tail vein. Mice were bled over a 48 h period at the following time points: 0, 5, 15 and 30 minutes and 1, 2, 6, 12, 24 and 48 h post-dosing (3 mice per time point). Bleeding was conducted using a facial vein technique into sterile Eppendorf tubes. Whole blood samples of 150 μl were collected at each time point, stored for 30 min at room temperature for clotting and centrifuged at 10,000 RPM for 10 minutes until serum separated. The serum samples were stored at −20° C.
The concentration of Compound 6 in the serum was measured by HPLC as follows: UltiMate® 3000 system (Dionex) was used equipped with 3000 pump, VWD-3000 UV-Vis detector and Chromeleon® 6.80 software. The column used was LiChroCART® 250×4.6 mm Purospher® STAR (5 μm) C-18 RP (reverse phase). Chromatographic conditions: flow: 1.0 ml/min, linear water (buffer A)/acetonitrile (ACN) (buffer B) gradient (buffer A—100% water, 0.1% TFA; buffer B—100% ACN, 0.1% TFA).
200 μl of methanol was added to 100 μl of serum sample and vortexed for 20 seconds, stored for 30 min at room temperature (22° C.), then centrifuged at 14,000 RPM for 10 minutes. The supernatant was filtered through a 0.22 μm filter and aliquots of 100 μl were analyzed by HPLC. AMB and Compound 6 were detected at a wavelength of 407 nm.
The pharmacokinetic graphs depicting drug concentration over time are shown in FIGS. 8A-8B (over 24 hours and 120 minutes respectively) and the calculated PK values are shown in Table 6 below.

Series [3] deals with C. albicans CBS 562. Nature of the series: In-vitro time-kill study. It is filed as cell-based, Candida albicans. As to conditions: 2-fold above the MIC, over 2 hours, 30° C. As for the experimental part: In time-kill studies, C. albicans CBS 562 was grown overnight from a single colony in 50 ml of liquid YPD medium (composed of 1% (w/v) yeast extract, Difco, 2% w/v peptone, Difco, and 2% w/v dextrose, Merck) at 30° C. On the next day, the starter was diluted 1:100 in the same medium and grown to an optical density at 600 nanometers (OD600 nm) of 0.5-0.6. Then, cells were counted and diluted to 10^6 cells/ml in YPD. Compound 6 and amphotericin B (AMB) were added at concentrations 2-fold above the MIC determined for this strain (2 and 0.5 μg/ml, respectively) and shaken at 30° C. At different time points (0, 15 min, 30 min, 1 h, 2 h) samples were removed, diluted and plated on YPD agar (2% agar) plates. Colonies were counted after incubation for 24 h at 30° C. Control measurements included untreated C. albicans cells and cells treated with AMB. All time-kill curve studies were conducted in duplicate and in three independent experiments.

The next series has as its system C. albicans. Nature of the series: Fungal burden in kidneys of infected mice. It is filed as in vivo. As to conditions: AMB 1 mg/kg; Compound 6 1.75, 3.5 and 7 mg/kg. As for the experimental part: Reference is made to FIGS. 6A-E. ICR female mice were inoculated with C. albicans in groups of 3 as described in example 6B and were killed 48 hours later for assessment of fungal burden. One kidney and the spleen were removed aseptically from each animal and homogenized in 1 mL of sterile normal saline. Serial 10-fold dilutions of the homogenates were spread on YAG plates, and colony-forming units (CFU)/organ was determined from the colony count after 24 hours incubation at 37° C. All mouse experiments were performed in duplicates.
At necropsy, fungal burden in mouse tissues was evaluated. […] FIGS. 6C-E show micrographs of mice treated with Compound 6 at dosages of 1.75 mg/kg, 3.5 mg/kg and 7 mg/kg, respectively.

Series [4] in a line: Stability (hydrolysis) in phosphate buffered saline. It is filed as physicochemical.
Series [5] is described as follows: Solubility in 0.9% saline after vortex, sonication and centrifuge. It is filed as physicochemical.

For the compound `C[C@@H]1[C@H](O)[C@@H](C)/C=C/C=C/C=C/C=C/C=C/C=C/C=C/[C@H](O[C@@H]2O[C@H](C)[C@@H](O)[C@H](N)[C@@H]2O)C[C@@H]2O[C@](O)(C[C@@H](O)C[C@@H](O)[C@H](O)CC[C@@H](O)C[C@@H](O)CC(=O)O[C@H]1C)C[C@H](O)[C@H]2C(=O)O` [AMB, Amphotericin B], in the series on ICR mice (female ICR mice, intravenous), the LD50 came to 1.2 mg/kg and the “Maximum Dose” value worked out at 1.1 mg/kg. In addition, the “outcome at twice the LD50” value with ICR mice (mice injected at twice the LD50) was “die instantaneously”. The maximum tolerated dose result in the series with ICR mice (mouse) is reported as “about 1 mg/kg body weight per day”. Also, the “mice rescued (survival)” value in the series on C. albicans CBS 562 [1] (1 mg/kg/day) is 10 of the 12. In series [2], this compound displayed an AUC0-24 of 63.983 µg·h/mL, a CL of 0.250 mL/h, an MRT0-24 of 9.664 h and a Vd of 0.006 L. In series [2], the t1/2 was 15.96 h and 15.964 h. Besides, the “time-kill activity (fungal presence)” value with C. albicans CBS 562 [3] was “reducing the fungal presence”. The “fungal hyphae in kidney sections (Fontana-Masson silver staining)” value in the series on C. albicans is on record as “barely detectable”.
On to `COC(=O)C1C(O)CC2(O)CC(O)CC(O)C(O)CCC(O)CC(O)CC(=O)OC(C)C(C)C(O)C(C)C=CC=CC=CC=CC=CC=CC=CC(OC3OC(C)C(O)C(NC(=O)CCOCCOCCOCCOCCOCCOCCOCCOCCN)C3O)CC1O2` (centres unmarked) [Compound 6, amphotericin B amide, methyl ester-PEG(8)-amine], for which, in the series on ICR mice (female ICR mice, intravenous), the “mouse LD50 fold higher than AMB” value is reported as no less than 40 fold, the “signs of toxicity at the highest injectable doses” value is recorded as “did not show any signs of toxicity”, the median lethal dose (LD50) result was “not reached” and the “Maximum Dose” value was determined as 42 mg/kg. Further, in the series on C. albicans CBS 562 [1] (3.5 mg/kg), the “mice rescued (survival)” value was “the same level of efficacy”. Also, the “mice rescued (survival)” value with C. albicans CBS 562 [1] (7 mg/kg) is given as “rescued all of the mice”. In addition, the “hydrolysis after 4 hours” value in series [4] (4 hours) is “no hydrolysis could be observed”. Also, the “level of hydrolysis after 24 hours” value in series [4] (24 hours) is given as 0.8%. In series [2], this compound had an AUC0-24 of 421.234 µg·h/mL, a CL of 0.508 mL/h, an MRT0-24 of 5.431 h and a Vd of 0.002 L. In series [2], the ke stood at 0.220 and the t1/2 turned out to be 3.153 h. Also, the “increased solubility relative to corresponding non-PEG-conjugated AMB compounds” value in series [5] was “greater than 700 fold”. Besides, in the series on C. albicans CBS 562 [3], the “time-kill activity (fungal presence)” value is “reducing the fungal presence”. Further, the “fungal hyphae in kidney sections (Fontana-Masson silver staining)” value in the series on C. albicans is recorded as “barely detectable”.

By LD50 is commonly meant the dose expected to kill half of the subjects tested. In general, Vd refers to a proportionality between amount in the body and measured concentration, not a real space.
